System: patients recently hospitalized for an Acute Coronary Syndrome (ACS)
Assay: dal-OUTCOMES pharmacogenomic study: cardiovascular events by ADCY9 genotype (Cox proportional hazards)
Type: in vivo, human
Parameters: key to Responsiveness to treatment: NR = non-responsive; PR = partially responsive; R = responsive
Settings: for Hazard ratio (dal vs placebo): time to events; for HR, dal-OUTCOMES: per copy of minor allele
Experimental: Dal-OUTCOMES trial (NC20971) was a double blind, randomized, placebo-controlled, parallel group, multi-center, phase III study to assess the safety and efficacy of the CETP inhibitor dalcetrapib in patients recently hospitalized for an Acute Coronary Syndrome (ACS). At time of the interim analysis the study included 15871 randomized patients, distributed over two treatment arms: placebo (7933 patients) and dalcetrapib (600 mg daily; 7938 patients). […] The dal-OUTCOMES study details can be found in G. Schwartz et al., N. Engl. J. Med. 367; 22, 2012.
dal-Outcomes patients were recruited 4 to 12 weeks following hospitalization for acute coronary syndrome characterized by elevated cardiac biomarkers, with symptoms of acute myocardial ischemia, ischemic electrocardiographic abnormalities that were new or presumed to be new, or loss of viable myocardium on imaging. Patients without elevated cardiac biomarkers were eligible to participate if symptoms of acute myocardial ischemia were accompanied by electrocardiographic changes that were new or presumed to be new and by additional evidence of obstructive coronary disease. (Schwartz G G et al. Am Heart J 2009; 158:896-901 e3).
All patients were following individualized programs to target LDL cholesterol levels of 100 mg per deciliter (2.6 mmol per liter) or lower by statin if tolerated and diet. No specific statin agent was specified, and patients were not excluded based on LDL cholesterol values. Patients with serum triglyceride levels of 400 mg per deciliter (4.5 mmol per liter) or higher were excluded. (Schwartz G G et al. N Engl J Med 2012; 367:2089-99) Eligible participants to the dal-Outcomes trial entered a single-blind placebo run-in period of approximately 4 to 6 weeks to allow for patients to stabilise and for completion of planned revascularisation procedures. At the end of the run-in period, eligible patients in stable condition were randomised in a 1:1 ratio to 600 mg of dalcetrapib or placebo on top of evidence-based medical care for acute coronary syndrome. Cardiovascular events were adjudicated by an independent clinical endpoint committee. For the pharmacogenomics study, 6338 patients were recruited from April 2008 through July 2010 at 461 sites in 14 countries and provided written informed consent to participate to the genetic study of the dal-OUTCOMES trial. DNA was extracted from whole blood. Following genomic data cleanup, samples from 5749 Caucasian patients were used for the discovery genome-wide association study (GWAS).
The Illumina Infinium HumanOmni2.5Exome-8v1_A BeadChip including 2,567,845 genetic variants (Illumina, San Diego, California) was used for the discovery GWAS of 5749 Caucasian participants to the dal-OUTCOMES study. The chromosome 16 region including 5 genes upstream and downstream of the adenylate cyclase type 9 (ADCY9) gene (CHR16: 3,400,000-4,600,000) was imputed using IMPUTE2, providing 17,764 variants for analysis with an average completion rate of 99.76%. A Sequenom panel was used for the confirmation of imputed single nucleotide polymorphisms (SNPs) in the ADCY9 gene identified in dal-OUTCOMES and were tested in the dal-PLAQUE-2 study, including 20 SNPs with P values<0.05 from the discovery GWAS.
Genome-wide association study (GWAS)—Genome-wide genotyping was performed using 200 ng of genomic DNA in GLP-environment at the Beaulieu-Saucier Pharmacogenomics Centre (Montreal, Canada). The Illumina Infinium HumanOmni2.5Exome-8v1_A BeadChip (Illumina, San Diego, CA) including 2,567,845 genomic markers was used and processed according to the manufacturer's specifications. This chip includes over 200,000 exome variants identified through the Exome Chip Consortium. The remaining BeadChip content is a mix of rare and common SNPs from the 1000 Genome Project designed to be maximally informative for diverse world populations. Each BeadChip was scanned and analyzed using the Illumina iScan Reader. […]

CCC(CC)CC1(C(=O)Nc2ccccc2SC(=O)C(C)C)CCCCC1 [dalcetrapib, thioisobutyric acid S-(2-{[1-(2-ethyl-butyl)-cyclohexanecarbonyl]-amino}-phenyl) ester]
Responsiveness to treatment (rs8061182 CC): NR
Hazard ratio (dal vs placebo) (rs8061182 CC): 1.52
Responsiveness to treatment (rs8061182 CT): PR
Hazard ratio (dal vs placebo) (rs8061182 CT): 0.99
Responsiveness to treatment (rs8061182 TT): R
Hazard ratio (dal vs placebo) (rs8061182 TT): 0.815
HR, dal-OUTCOMES (rs11647778, Cox additive genetic model): 0.678
Responsiveness to treatment (rs11647778 CC): R
Hazard ratio (dal vs placebo) (rs11647778 CC): 0.691
Responsiveness to treatment (rs11647778 CG): PR
Hazard ratio (dal vs placebo) (rs11647778 CG): 0.966
Responsiveness to treatment (rs11647778 GG): NR
Hazard ratio (dal vs placebo) (rs11647778 GG): 1.300
HR, dal-OUTCOMES (rs11647828, Cox additive genetic model): 0.696
Responsiveness to treatment (rs11647828 CC): R
Hazard ratio (dal vs placebo) (rs11647828 CC): 0.647
Responsiveness to treatment (rs11647828 CT): PR
Hazard ratio (dal vs placebo) (rs11647828 CT): 0.963
Responsiveness to treatment (rs11647828 TT): NR
Hazard ratio (dal vs placebo) (rs11647828 TT): 1.315
HR, dal-OUTCOMES (rs12595857, Cox additive genetic model): 0.677
Responsiveness to treatment (rs12595857 AA): NR
Hazard ratio (dal vs placebo) (rs12595857 AA): 1.255
Responsiveness to treatment (rs12595857 AG): PR
Hazard ratio (dal vs placebo) (rs12595857 AG): 0.954
Responsiveness to treatment (rs12595857 GG): R
Hazard ratio (dal vs placebo) (rs12595857 GG): 0.719
HR, dal-OUTCOMES (rs12599911, Cox additive genetic model): 0.674
Responsiveness to treatment (rs12599911 GG): R
Hazard ratio (dal vs placebo) (rs12599911 GG): 0.672
Responsiveness to treatment (rs12599911 GT): PR
Hazard ratio (dal vs placebo) (rs12599911 GT): 0.982
Responsiveness to treatment (rs12599911 TT): NR
Hazard ratio (dal vs placebo) (rs12599911 TT): 1.244
HR, dal-OUTCOMES (rs12920508, Cox additive genetic model): 0.669
Responsiveness to treatment (rs12920508 CC): NR
Hazard ratio (dal vs placebo) (rs12920508 CC): 1.205
Responsiveness to treatment (rs12920508 CG): PR
Hazard ratio (dal vs placebo) (rs12920508 CG): 0.946
Responsiveness to treatment (rs12920508 GG): R
Hazard ratio (dal vs placebo) (rs12920508 GG): 0.676
HR, dal-OUTCOMES (rs12935810, Cox additive genetic model): 1.377
Responsiveness to treatment (rs12935810 AA): NR
Hazard ratio (dal vs placebo) (rs12935810 AA): 1.260
Responsiveness to treatment (rs12935810 AG): NR
Hazard ratio (dal vs placebo) (rs12935810 AG): 1.043
Responsiveness to treatment (rs12935810 GG): R
Hazard ratio (dal vs placebo) (rs12935810 GG): 0.796
HR, dal-OUTCOMES (rs13337675, Cox additive genetic model): 0.834
Responsiveness to treatment (rs13337675 AA): NR
Hazard ratio (dal vs placebo) (rs13337675 AA): 1.070
Responsiveness to treatment (rs13337675 AG): PR
Hazard ratio (dal vs placebo) (rs13337675 AG): 0.904
Responsiveness to treatment (rs13337675 GG): PR
Hazard ratio (dal vs placebo) (rs13337675 GG): 1.034
HR, dal-OUTCOMES (rs17136707, Cox additive genetic model): 0.594
Responsiveness to treatment (rs17136707 CC): R
Hazard ratio (dal vs placebo) (rs17136707 CC): 0.552
Responsiveness to treatment (rs17136707 CT): PR
Hazard ratio (dal vs placebo) (rs17136707 CT): 0.835
Responsiveness to treatment (rs17136707 TT): NR
Hazard ratio (dal vs placebo) (rs17136707 TT): 1.058
HR, dal-OUTCOMES (rs74702385, Cox additive genetic model): 0.599
Responsiveness to treatment (rs74702385 CC): NR
Hazard ratio (dal vs placebo) (rs74702385 CC): 1.053
Responsiveness to treatment (rs74702385 CT): R
Hazard ratio (dal vs placebo) (rs74702385 CT): 0.854
Responsiveness to treatment (rs74702385 TT): R
Hazard ratio (dal vs placebo) (rs74702385 TT): 0.348
HR, dal-OUTCOMES (rs111590482, Cox additive genetic model): 0.606
Responsiveness to treatment (rs111590482 CC): R
Hazard ratio (dal vs placebo) (rs111590482 CC): 0.333
Responsiveness to treatment (rs111590482 CT): R
Hazard ratio (dal vs placebo) (rs111590482 CT): 0.856
Responsiveness to treatment (rs111590482 TT): NR
Hazard ratio (dal vs placebo) (rs111590482 TT): 1.054
event rate in the primary efficacy endpoint, dalcetrapib arm compared to placebo arm (whole study population, 600 mg daily, interim analysis): no evidence of reduction of the event rate
HR for cardiovascular events, AA compared to reference GG homozygotes at rs1967309 (within dalcetrapib arm): 0.40
HR for cardiovascular events, AG compared to reference GG homozygotes at rs1967309 (within dalcetrapib arm): 0.68

Reference: patent publication US12371748B2, “Genetic markers for predicting responsiveness to therapy with HDL-raising or HDL mimicking agent” (Hoffmann-La Roche Inc., priority 2014, dated 2025)
